# Read-outs that look alike come from different tables or passages of the source.
# Key:
# streptococci = assay: organism not typed; assay type: cell-based
# S. pneumoniae = assay: microbe, parasite or virus in culture; assay type: cell-based; conditions: for MIC: Streptococcus pneumoniae
smiles,measurement,setting,value
"CC[C@H]1OC(=O)[C@H](C)[C@@H](O[C@H]2C[C@@](C)(OC)[C@@H](O)[C@H](C)O2)[C@H](C)[C@@H](O[C@@H]2O[C@H](C)C[C@H](N(C)C)[C@H]2O)[C@](C)(OC)C[C@@H](C)C(=O)[C@H](C)[C@@H](O)[C@]1(C)O [CLR, clarithromycin]",MIC Range,streptococci,≦0.008-0.25 μg/ml
same,strains with resistant clones / strains tested,S. pneumoniae; S. pneumoniae,5/6
same,Parental MICs,"S. pneumoniae; S. pneumoniae, 8 strains with varying resistotypes",0.016 to 16 µg/mL
same,MIC,"S. pneumoniae; read-out: Initial MIC, strain 24 Macrolide-R [erm(B)], parent",> 64 µg/mL
same,MIC,"S. pneumoniae; read-out: Initial MIC, strain 1076 Macrolide-R [erm(B)&mef(A)], parent",> 64 µg/mL
same,MIC,"S. pneumoniae; read-out: Initial MIC, strain 1077 Macrolide-S, parent",0.016 µg/mL
same,MIC,"S. pneumoniae; read-out: Initial MIC, strain 1635 Macrolide-R [erm(A)], parent",0.5 µg/mL
same,MIC,"S. pneumoniae; read-out: Initial MIC, strain 2686 Macrolide-R [L4 mutation], parent",8 µg/mL
same,MIC,"S. pneumoniae; read-out: Initial MIC, strain 3009 Macrolide-R [23SrRNA mutation], parent",16 µg/mL
same,MIC,"S. pneumoniae; read-out: Initial MIC, strain 3665 Macrolide-R [mef(A)], parent",2 µg/mL
same,MIC,"S. pneumoniae; read-out: Initial MIC, strain 7127 Macrolide-S [S20N in L4, A105V in L22], parent",0.03 µg/mL
same,MIC,"S. pneumoniae; read-out: MIC of parents of resistant clones, S. pneumoniae (CEM-101: 7 strains)",0.03 to 16 µg/mL
same,MIC,"S. pneumoniae; read-out: Selected Resistance MIC, strain 1077 Macrolide-S, after serial passages in the drug",0.008 µg/mL
same,MIC,"S. pneumoniae; read-out: Selected Resistance MIC, strain 1635 Macrolide-R [erm(A)], after serial passages in the drug",> 64 µg/mL
same,MIC,"S. pneumoniae; read-out: Selected Resistance MIC, strain 2686 Macrolide-R [L4 mutation], after serial passages in the drug",> 64 µg/mL
same,MIC,"S. pneumoniae; read-out: Selected Resistance MIC, strain 3009 Macrolide-R [23SrRNA mutation], after serial passages in the drug",> 64 µg/mL
same,MIC,"S. pneumoniae; read-out: Selected Resistance MIC, strain 3665 Macrolide-R [mef(A)], after serial passages in the drug",16 µg/mL
same,MIC,"S. pneumoniae; read-out: Selected Resistance MIC, strain 7127 Macrolide-S [S20N in L4, A105V in L22], after serial passages in the drug",16 µg/mL
same,days until resistant clones (MIC increase),"S. pneumoniae; daily passages, min. 14, max. 50",14 to 49 days
same,Retest MIC after 10 Antibiotic-free Subcultures,"S. pneumoniae; strain 24 Macrolide-R [erm(B)], clone selected with CEM-101",>64 µg/mL
same,Retest MIC after 10 Antibiotic-free Subcultures,"S. pneumoniae; strain 24 Macrolide-R [erm(B)], clone selected with TEL",>64 µg/mL
same,Retest MIC after 10 Antibiotic-free Subcultures,"S. pneumoniae; strain 1076 Macrolide-R [erm(B)&mef(A)], clone selected with CEM-101",>64 µg/mL
same,Retest MIC after 10 Antibiotic-free Subcultures,"S. pneumoniae; strain 1076 Macrolide-R [erm(B)&mef(A)], clone selected with TEL",>64 µg/mL
same,Retest MIC after 10 Antibiotic-free Subcultures,"S. pneumoniae; strain 1077 Macrolide-S, clone selected with AZI",>64 µg/mL
same,Retest MIC after 10 Antibiotic-free Subcultures,"S. pneumoniae; strain 1077 Macrolide-S, clone selected with CEM-101",0.06 µg/mL
same,Retest MIC after 10 Antibiotic-free Subcultures,"S. pneumoniae; strain 1077 Macrolide-S, clone selected with CLN",>64 µg/mL
same,Retest MIC after 10 Antibiotic-free Subcultures,"S. pneumoniae; strain 1077 Macrolide-S, clone selected with TEL",>64 µg/mL
same,Retest MIC after 10 Antibiotic-free Subcultures,"S. pneumoniae; strain 1635 Macrolide-R [erm(A)], clone selected with AZI",>64 µg/mL
same,Retest MIC after 10 Antibiotic-free Subcultures,"S. pneumoniae; strain 1635 Macrolide-R [erm(A)], clone selected with CEM-101",1 µg/mL
same,Retest MIC after 10 Antibiotic-free Subcultures,"S. pneumoniae; strain 1635 Macrolide-R [erm(A)], clone selected with CLN",0.5 µg/mL
same,Retest MIC after 10 Antibiotic-free Subcultures,"S. pneumoniae; strain 1635 Macrolide-R [erm(A)], clone selected with CLR",>64 µg/mL
same,Retest MIC after 10 Antibiotic-free Subcultures,"S. pneumoniae; strain 2686 Macrolide-R [L4 mutation], clone selected with CEM-101",32 µg/mL
same,Retest MIC after 10 Antibiotic-free Subcultures,"S. pneumoniae; strain 2686 Macrolide-R [L4 mutation], clone selected with CLR",>64 µg/mL
same,Retest MIC after 10 Antibiotic-free Subcultures,"S. pneumoniae; strain 2686 Macrolide-R [L4 mutation], clone selected with TEL",16 µg/mL
same,Retest MIC after 10 Antibiotic-free Subcultures,"S. pneumoniae; strain 3009 Macrolide-R [23SrRNA mutation], clone selected with CEM-101",>64 µg/mL
same,Retest MIC after 10 Antibiotic-free Subcultures,"S. pneumoniae; strain 3009 Macrolide-R [23SrRNA mutation], clone selected with CLR",64 µg/mL
same,Retest MIC after 10 Antibiotic-free Subcultures,"S. pneumoniae; strain 3665 Macrolide-R [mef(A)], clone selected with CEM-101",4 µg/mL
same,Retest MIC after 10 Antibiotic-free Subcultures,"S. pneumoniae; strain 3665 Macrolide-R [mef(A)], clone selected with CLR",8 µg/mL
same,Retest MIC after 10 Antibiotic-free Subcultures,"S. pneumoniae; strain 3665 Macrolide-R [mef(A)], clone selected with TEL",2 µg/mL
same,Retest MIC after 10 Antibiotic-free Subcultures,"S. pneumoniae; strain 7127 Macrolide-S [S20N in L4, A105V in L22], clone selected with AZI",0.5 µg/mL
same,Retest MIC after 10 Antibiotic-free Subcultures,"S. pneumoniae; strain 7127 Macrolide-S [S20N in L4, A105V in L22], clone selected with CEM-101",0.125 µg/mL
same,Retest MIC after 10 Antibiotic-free Subcultures,"S. pneumoniae; strain 7127 Macrolide-S [S20N in L4, A105V in L22], clone selected with CLN",0.016 µg/mL
same,Retest MIC after 10 Antibiotic-free Subcultures,"S. pneumoniae; strain 7127 Macrolide-S [S20N in L4, A105V in L22], clone selected with CLR",16 µg/mL
same,Retest MIC after 10 Antibiotic-free Subcultures,"S. pneumoniae; strain 7127 Macrolide-S [S20N in L4, A105V in L22], clone selected with TEL",0.06 µg/mL

# — patent US9901592B2 (priority 2008, dated 2018)
